Data on one compound can be found in patent US20240041842A1, “PHARMACEUTICAL COMPOSITION FOR INHIBITING CANCER METASTASIS” (INDUSTRY-ACADEMIC COOPERATION FOUNDATION, YONSEI UNIVERSITY, priority 2021, published 2024).

Holding throughout (assay type): cell-based, human
The test system of test [1] is KRAS-mutant pancreatic cancer cells. The test is described as follows: Matrigel invasion assay, pancreatic cancer cell lines. As to conditions: 100 uM chloroquine, 24 hours. On the procedure:
FIG. 12C illustrates changes in matrigel invasiveness after treating the pancreatic cancer cell line with 100 uM chloroquine (CQ) for 24 hours, and the bright-field micrographs of cells infiltrating through the matrigel coated transwell membrane (top) and quantification results (bottom) are shown.
For the 2D invasion assay, the inserts were pre-coated with 300 μg/ml Matrigel (Coming, 354234). After staining with […] dye (Bio-Rad, 1450013), 1×10^5 live cells per 8-um-pore cell-culture insert (Costar. 3422) were seeded in 0.5% ACL medium. 10% ACL medium was added to the outside of the insert. In the case of lung cancer and pancreatic cancer cell lines, after inoculation in 1% RPMI medium, 20% RPMI medium was added to the outside of the insert. Plates were incubated for 24 hours at 37° C. After incubation, the insert was fixed with 3.7% PFA, washed, stained with 0.4% crystal violet, and the upper membrane was washed and dried.

The next test has as its system LC3. The test is described as follows: Autophagic flux (LC3 Western blot, mRFP-GFP-LC3 lysosomal delivery assay). As to conditions: HBEC-KL cells; 50 uM chloroquine for 6 hours. (In western blotting, separated proteins are transferred to a membrane and probed.)
A further test has as its system SNAI1 gene. Nature of the test: Real-time PCR of SNAI1 gene. As to conditions: HBEC-KL cell line; 50 uM chloroquine, 24 hours. The procedure:
After synthesizing complementary DNA (cDNA) using the TOPscript·8 cDNA synthesis kit (Enzynomics, EZ0054), gRT-PCR was performed with TCPreal™ gRCR 2× PreMIX (SYBR Green with low ROX) (Enzynomics, RT501M). GAPDH and beta-actin were used for RNA normalization. qRT-PCR was performed with a StepOne Plus (Applied Biosystems) instrument.

For another test, the system named is Intracellular acetyl-CoA. Nature of the test: Acetyl-CoA measurement. As to conditions: KRAS-mutant pancreatic cancer cells; 100 uM chloroquine, 24 hours. The procedure:
Intracellular acetyl-CoA levels were calculated in the pmol range using the PicoProbe Acetyl-CoA Assay Kit (Biovision, K317). […] After correcting the background in all readings, the value of each sample was determined and normalized to the protein concentration of each sample.

The next test deals with acetylated Snail. Nature of the test: Immunoprecipitation-immunoblot of acetylated Snail. The settings on record: KRAS-mutant pancreatic cancer cells; 100 uM chloroquine, 24 hours. The procedure: Cell lysates (1 μg protein) were incubated overnight at 4° C. on anti-FLAG® M2 Affinity Gel (Sigma, A2220) or anti-acetyl-lysine antibody coated agarose (ImmuneChem Pharmaceuticals, ICP0388). The immunoprecipitate was then washed three times in IP buffer, and the immunoprecipitated complex was dissolved and separated by boiling in IP buffer for 5 minutes.
For SDS-PAGE electrophoresis, the immunoprecipitated complex was transferred to a nitrocellulose membrane and the membrane was blocked and then incubated for 1 hour at room temperature with Primary antibody and secondary antibody (VeriBlot for IP Detection Reagent (HRP) (Abcam, #ab131366), and anti-mouse IgG tor IP (HRP) (Abeam, #ab131368)).
After washing 3 times, the membrane was incubated with the secondary antibody.

Test [2] has as its system total protein acetylation. The test is described as follows: Western blot of total protein acetylation. The settings on record: HBEC-KL; 50 uM chloroquine, 24 hours; same effect = reduced. The procedure: Cells were harvested, washed with PBS, and lysed on ice with RIPA buffer containing protease and phophatase inhibitor cocktail (GenDEPOT). After 15 minutes of incubation, the cell lysates were centrifuged at 15,000 rpm at 4° C. for 10 minutes. Protein concentration was measured by Bradford assay (Bio-rad, 500-0006). Equal amounts of total protein were placed on an SDS gel electrophoresis and transferred to a PVDF membrane (Bio-rad). The membrane was blocked with 5% skim milk for 1 hour at room temperature and incubated overnight at 4° C. with primary antibody in a buffer containing 0.1% Tween-20. Subsequently, the membrane was washed three times with Tween-PBS buffer and incubated for 1 hour at room temperature using a secondary antibody diluted in blocking buffer containing 0.1% Tween-20. Subsequently, the membrane was washed three times for 10 minutes each using Tween-TBS. Densitometry of Western blots was measured using ImageJ software.

The next test relates to Snail. The test is described as follows: Western blot of Snail protein. The settings on record: HBEC-KL cell line; chloroquine 12 to 48 hours.

In the case of `CCN(CC)CCCC(C)Nc1ccnc2cc(Cl)ccc12` (stereo not shown) [CQ, chloroquine], in test [1], the “2D Matrigel transwell invasion” value was “reduced”. For the same compound, the LC3-II accumulation entry in the test with LC3 is on record as “high levels”. In addition, in the test with SNAI1 gene, the “SNAI1 mRNA expression level” value is given as “no change”. Also, the acetyl-CoA entry in the test with Intracellular acetyl-CoA is reported as “reduced”. Further, the “acetylated Snail” value in the test on acetylated Snail was “reduced”. Besides, the overall protein acetylation entry in test [2] is “the same effect”. Also, the “expression level of Snail protein” value in the test with Snail is listed as “reduced”.
